Legend:
[1] = system: brains, heart, liver, muscle, and DRG of the NHPs; experiment: Maturation of TTM-001 and TTM-002 capsids, NGS enrichment in NHP tissues; assay type: in vivo; conditions: relative to AAV9 control
In short: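 Variants carry mutations within and flanking the loop IV peptide insert: positions 450–466 were triplet-randomized, while positions 449–466 received low-frequency point mutations. The combined pool went into two NHPs, and each peptide was scored by NGS enrichment ratio against AAV9.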

brain = experiment: Matured TTM-001 and TTM-002 variants, NGS enrichment in mouse brain; assay type: in vivo, mice; conditions: relative to AAV9 control
[2] = NGS fold-enrichment of RNA, NHP brain
[3] = NGS fold-enrichment, DRG of NHPs
[4] = NGS fold-enrichment, NHP liver DNA
[5] = NGS fold-enrichment, NHP liver RNA
[6] = NGS fold-enrichment, NHP muscle
[7] = NGS fold-enrichment, RNA, brain of NHPs
[8] = NGS fold-enrichment, heart of NHPs
[9] = NGS fold-enrichment, liver DNA of NHPs
[10] = NGS fold-enrichment, liver RNA of NHPs
[11] = NGS fold-enrichment, muscle of NHPs
[12] = NGS fold-enrichment, brain of mice
[13] = NGS fold-enrichment, mouse brain
[14] = NGS fold-enrichment of matured AAV capsid variants, NHP brain, RNA

Sequence	Fold Enrichment relative to AAV9, DRG (NHP) [1, 3]	Fold Enrichment relative to AAV9, Brain (NHP) [1, 7]	Fold Enrichment relative to AAV9, Heart (NHP) [1, 8]	Fold Enrichment relative to AAV9, Liver DNA (NHP) [1, 9]	Fold Enrichment relative to AAV9, Liver RNA (NHP) [1, 10]	Fold Enrichment relative to AAV9, Muscle (NHP) [1, 11]	Fold Enrichment relative to AAV9, Brain (Mouse) (brain; [12])	Fold Enrichment relative to AAV9, Brain (NHP) [1, 14]	Fold Enrichment relative to AAV9, DRG (NHP) ([1]; NHP DRG)	Fold Enrichment relative to AAV9, Heart (NHP) ([1]; NHP heart)	Fold Enrichment relative to AAV9, Liver DNA (NHP) ([1]; NHP liver, DNA)	Fold Enrichment relative to AAV9, Liver RNA (NHP) ([1]; NHP liver, RNA)	Fold Enrichment relative to AAV9, Muscle (NHP) ([1]; NHP muscle)	Fold Enrichment relative to AAV9, Brain (Mouse) (brain; mouse brain)	also measured
KELHGSGSPHSKAQNQQT	0.000 fold	102.680 fold	0.000 fold	0.592 fold	1.634 fold	0.000 fold	96.554 fold	–	–	–	–	–	–	–	Fold Enrichment relative to AAV9, Brain (NHP) [1, 2]: 102.680 fold; Fold Enrichment relative to AAV9, DRG (NHP) ([1]; NGS fold-enrichment, NHP DRG): 0.000 fold; Fold Enrichment relative to AAV9, Heart (NHP) ([1]; NGS fold-enrichment, NHP heart): 0.000 fold; Fold Enrichment relative to AAV9, Liver DNA (NHP) [1, 4]: 0.592 fold; Fold Enrichment relative to AAV9, Liver RNA (NHP) [1, 5]: 1.634 fold; Fold Enrichment relative to AAV9, Muscle (NHP) [1, 6]: 0.000 fold; Fold Enrichment relative to AAV9, Brain (Mouse) (brain; [13]): 96.554 fold
KESDGSGSPHSKAQNQQT	0.000 fold	63.766 fold	0.000 fold	0.146 fold	0.567 fold	0.000 fold	115.231 fold	–	–	–	–	–	–	–	–
KEVHGSGSPHSKAQNQQT	0.000 fold	67.901 fold	0.000 fold	0.000 fold	0.727 fold	0.000 fold	100.111 fold	–	–	–	–	–	–	–	–
KEVQGSGSPHSKAQNQQT	–	–	–	–	–	–	–	58.125 fold	0.000 fold	0.000 fold	0.000 fold	0.657 fold	0.000 fold	168.220 fold	–
KEVVGSGSPHSKAQNQQT	–	–	–	–	–	–	–	56.371 fold	0.000 fold	0.000 fold	0.323 fold	0.000 fold	0.000 fold	116.964 fold	–
KGGEGSGSPHSKAQNQQT	–	–	–	–	–	–	–	58.472 fold	0.000 fold	0.034 fold	0.066 fold	0.037 fold	0.000 fold	91.023 fold	–
KGVLGSGSPHSKAQNQQT	–	–	–	–	–	–	–	54.472 fold	0.000 fold	0.007 fold	0.189 fold	0.359 fold	0.027 fold	145.740 fold	–
KIINGRDSPHKSGQDQQT	–	–	–	–	–	–	–	–	–	–	–	–	–	–	Fold Enrichment relative to AAV9, Brain (NHP) [1, 2]: 78.773 fold; Fold Enrichment relative to AAV9, DRG (NHP) ([1]; NGS fold-enrichment, NHP DRG): 0.000 fold; Fold Enrichment relative to AAV9, Heart (NHP) ([1]; NGS fold-enrichment, NHP heart): 0.254 fold; Fold Enrichment relative to AAV9, Liver DNA (NHP) [1, 4]: 0.156 fold; Fold Enrichment relative to AAV9, Liver RNA (NHP) [1, 5]: 0.000 fold; Fold Enrichment relative to AAV9, Muscle (NHP) [1, 6]: 0.000 fold; Fold Enrichment relative to AAV9, Brain (Mouse) (brain; [13]): 16.132 fold
KNADGSGSPHSKAQNQQT	0.000 fold	60.944 fold	0.000 fold	0.085 fold	1.239 fold	0.000 fold	104.503 fold	–	–	–	–	–	–	–	–
KNAIGSGSPHSKAQNQQT	–	–	–	–	–	–	–	52.516 fold	0.000 fold	0.000 fold	0.198 fold	0.165 fold	0.000 fold	117.939 fold	–
KNALGSGSPHSKAQNQQT	0.000 fold	60.014 fold	0.003 fold	0.213 fold	0.682 fold	0.000 fold	137.222 fold	–	–	–	–	–	–	–	–
KNCLGSGSPHSKAQNQQT	0.000 fold	61.442 fold	0.036 fold	0.026 fold	1.849 fold	0.000 fold	82.488 fold	–	–	–	–	–	–	–	–
KNCVGSGSPHSKAQNQQT	0.000 fold	60.535 fold	0.000 fold	0.282 fold	0.018 fold	0.000 fold	96.175 fold	–	–	–	–	–	–	–	–
KNCWGSGSPHSKAQNQQT	–	–	–	–	–	–	–	57.756 fold	0.000 fold	0.000 fold	0.092 fold	0.000 fold	0.000 fold	59.888 fold	–
KNHIGSGSPHSKAQNQQT	0.000 fold	64.535 fold	0.000 fold	0.187 fold	1.253 fold	0.000 fold	70.356 fold	–	–	–	–	–	–	–	–
KNINGGGSPHSKAQNQQT	0.000 fold	83.083 fold	0.042 fold	0.000 fold	0.000 fold	0.000 fold	75.913 fold	–	–	–	–	–	–	–	Fold Enrichment relative to AAV9, Brain (NHP) [1, 2]: 83.083 fold; Fold Enrichment relative to AAV9, DRG (NHP) ([1]; NGS fold-enrichment, NHP DRG): 0.000 fold; Fold Enrichment relative to AAV9, Heart (NHP) ([1]; NGS fold-enrichment, NHP heart): 0.042 fold; Fold Enrichment relative to AAV9, Liver DNA (NHP) [1, 4]: 0.000 fold; Fold Enrichment relative to AAV9, Liver RNA (NHP) [1, 5]: 0.000 fold; Fold Enrichment relative to AAV9, Muscle (NHP) [1, 6]: 0.000 fold; Fold Enrichment relative to AAV9, Brain (Mouse) (brain; [13]): 75.913 fold
KNINGSGSPHSKAQNHQT	–	–	–	–	–	–	–	54.248 fold	0.000 fold	0.034 fold	0.075 fold	0.340 fold	0.000 fold	74.979 fold	–

Source: US20260250318A1, “COMPOSITIONS AND METHODS FOR CROSSING THE BLOOD BRAIN BARRIER” (VOYAGER THERAPEUTICS, INC., priority 2022, published 2026)
